Measurements from US20260262643A1, “HERBICIDAL BENZOXAZINES” (FMC CORPORATION, priority 2022, published 2026).

Experiments:
blackgrass [1] = experiment: Test A preemergence; assay type: in vivo, Alopecurus myosuroides; conditions: Alopecurus myosuroides, pre-emergence, 240 h, visual injury after 10 days, 0 to 100 scale, 0 is no effect, 100 is complete control, read-out: Plant response rating, Blackgrass
How it was run: (§1)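 Greenhouse pot test, 10 days. Compound (non-phytotoxic solvent, surfactant) sprayed on soil at seeding or on seedlings at one- to two-leaf stage. Visual injury rated 0–100 against untreated plants.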

foxtail, giant [2] = experiment: Test A preemergence; assay type: in vivo, Setaria faberi; conditions: Setaria faberi, pre-emergence, 240 h, visual injury after 10 days, 0 to 100 scale, 0 is no effect, 100 is complete control, read-out: Plant response rating, Foxtail, Giant
How it was run: as §1

goosegrass [3] = experiment: Test A preemergence; assay type: in vivo, Eleusine indica; conditions: Eleusine indica, pre-emergence, 240 h, visual injury after 10 days, 0 to 100 scale, 0 is no effect, 100 is complete control, read-out: Plant response rating, Goosegrass
How it was run: as §1

soybean = experiment: Test A preemergence; assay type: in vivo, Glycine max; conditions: Glycine max, pre-emergence, 240 h, visual injury after 10 days, 0 to 100 scale, 0 is no effect, 100 is complete control, read-out: Plant response rating, Soybean
How it was run: as §1

blackgrass [4] = experiment: Test A postemergence; assay type: in vivo, Alopecurus myosuroides; conditions: Alopecurus myosuroides, post-emergence, 240 h, postemergence, 10 days, 0 to 100 scale (0 no effect, 100 complete control)
How it was run: as §1

foxtail, giant [5] = experiment: Test A postemergence; assay type: in vivo, Setaria faberi; conditions: Setaria faberi, post-emergence, 240 h, postemergence, 10 days, 0 to 100 scale (0 no effect, 100 complete control)
How it was run: as §1

goosegrass [6] = experiment: Test A postemergence; assay type: in vivo, Eleusine indica; conditions: Eleusine indica, post-emergence, 240 h, postemergence, 10 days, 0 to 100 scale (0 no effect, 100 complete control)
How it was run: as §1

oat, wild = experiment: Test A postemergence; assay type: in vivo, Avena fatua; conditions: Avena fatua, post-emergence, 240 h, postemergence, 10 days, 0 to 100 scale (0 no effect, 100 complete control)
How it was run: as §1

pigweed, palmer = experiment: Test A postemergence; assay type: in vivo, Amaranthus palmeri; conditions: Amaranthus palmeri, post-emergence, 240 h, postemergence, 10 days, 0 to 100 scale (0 no effect, 100 complete control)
How it was run: as §1

ragweed = experiment: Test A postemergence; assay type: in vivo, Ambrosia artemisiifolia; conditions: Ambrosia artemisiifolia, post-emergence, 240 h, postemergence, 10 days, 0 to 100 scale (0 no effect, 100 complete control)
How it was run: as §1

ryegrass, Italian = experiment: Test A postemergence; assay type: in vivo, Lolium multiflorum; conditions: Lolium multiflorum, post-emergence, 240 h, postemergence, 10 days, 0 to 100 scale (0 no effect, 100 complete control)
How it was run: as §1

wheat = experiment: Test A postemergence; assay type: in vivo, Triticum aestivum; conditions: Triticum aestivum, post-emergence, 240 h, postemergence, 10 days, 0 to 100 scale (0 no effect, 100 complete control)
How it was run: as §1

galium = experiment: Test A postemergence; assay type: in vivo, Galium aparine; conditions: Galium, post-emergence, 240 h, postemergence, 10 days, 0 to 100 scale (0 no effect, 100 complete control)
How it was run: as §1

sedge, umbrella = experiment: Test B flooded paddy test; assay type: in vivo, Cyperus difformis; conditions: Cyperus difformis, 312 h; 250 g ai/ha, Flood, 13 days, 0 to 100 scale (0 no effect, 100 complete control); read-out: Plant response rating, Sedge, Umbrella
How it was run: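 Plants at the 2-leaf stage were flooded to 3 cm above the soil, and test compounds were applied directly into the paddy water, with that depth held throughout. After 13 days in a greenhouse, injury was rated visually against untreated controls on a 0–100 scale (100 = complete control).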

Cc1cccc2c1O[C@@H](C)CN2C(=O)c1cccc(-n2cn[nH]c2=O)c1 [Compound 122, 4-[3-[[(2S)-2,3-Dihydro-2,8-dimethyl-4H-1,4-benzoxazin-4-yl]carbonyl]phenyl]-2,4-dihydro-3H-1,2,4-triazol-3-one]
20%: pest or weed control at 125 g/ha (foxtail, giant [2]; 125 g ai/ha) | pest or weed control at 125 g/ha (foxtail, giant [5]; 125 g ai/ha, read-out: Foxtail, Giant plant response rating) | pest or weed control at 500 g/ha (oat, wild; 500 g ai/ha, visual injury, read-out: Plant response rating, Oat, Wild) | pest or weed control at 125 g/ha (pigweed, palmer; 125 g ai/ha, read-out: Pigweed, Palmer plant response rating) | pest or weed control at 500 g/ha (pigweed, palmer; 500 g ai/ha, visual injury, read-out: Plant response rating, Pigweed, Palmer)
0%: pest or weed control at 125 g/ha (goosegrass [3]; 125 g ai/ha) | plant injury at 125 g/ha (soybean; 125 g ai/ha) | plant injury at 500 g/ha (soybean; 500 g ai/ha) | pest or weed control at 125 g/ha (blackgrass [4]; 125 g ai/ha, read-out: Blackgrass plant response rating) | pest or weed control at 125 g/ha (goosegrass [6]; 125 g ai/ha, read-out: Goosegrass plant response rating) | pest or weed control at 125 g/ha (oat, wild; 125 g ai/ha, read-out: Oat, Wild plant response rating) | pest or weed control at 125 g/ha (ragweed; 125 g ai/ha, read-out: Ragweed plant response rating) | pest or weed control at 500 g/ha (ragweed; 500 g ai/ha, visual injury, read-out: Plant response rating, Ragweed) | pest or weed control at 125 g/ha (ryegrass, Italian; 125 g ai/ha, read-out: Ryegrass, Italian plant response rating) | pest or weed control at 250 g/ha (sedge, umbrella)
60%: pest or weed control at 500 g/ha (goosegrass [6]; 500 g ai/ha, visual injury, read-out: Plant response rating, Goosegrass)
10%: pest or weed control at 125 g/ha (blackgrass [1]; 125 g ai/ha) | plant injury at 125 g/ha (wheat; 125 g ai/ha, read-out: Wheat plant response rating) | plant injury at 500 g/ha (wheat; 500 g ai/ha, visual injury, read-out: Plant response rating, Wheat)
30%: pest or weed control at 500 g/ha (ryegrass, Italian; 500 g ai/ha, visual injury, read-out: Plant response rating, Ryegrass, Italian)
50%: pest or weed control at 500 g/ha (blackgrass [1]; 500 g ai/ha) | pest or weed control at 500 g/ha (blackgrass [4]; 500 g ai/ha, visual injury, read-out: Plant response rating, Blackgrass) | pest or weed control at 500 g/ha (foxtail, giant [5]; 500 g ai/ha, visual injury, read-out: Plant response rating, Foxtail, Giant) | pest or weed control at 125 g/ha (galium; 125 g ai/ha, read-out: Galium plant response rating) | pest or weed control at 500 g/ha (galium; 500 g ai/ha, visual injury, read-out: Plant response rating, Galium)
90%: pest or weed control at 500 g/ha (foxtail, giant [2]; 500 g ai/ha) | pest or weed control at 500 g/ha (goosegrass [3]; 500 g ai/ha)
